Here are results for three compounds from patent US9492545B2, “Compositions of statins and omega-3 fatty acids” (Omthera Pharmaceuticals, Inc., priority 2012, dated 2016).

Data set [1] is described as follows: Stability testing of statins dissolved in PUFA free acid solvent system at 25° C., 60% RH (Example 5). Type of data set: physicochemical. The procedure: The compositions were then mixed until full dissolution was observed, using a magnetic stir bar and sonication for 30-60 second intervals, taking care to maintain a nitrogen headspace over the solution throughout processing. […] Vials were covered with foil to protect from light and stored at 25° C., 60% RH. One vial of each of the three compositions was retrieved at each timepoint for testing. Procedures as listed in the USP Monograph for Omega-3-Acid Ethyl Ester Capsules were followed for measuring quantities of acid value, peroxide value, and absorbance for fats and fixed oils.

A short description of data set [2]: Solubility of statins in PUFA free acid solvent system, HPLC of supernatant (Example 4). The note with it: 2 mL PUFA free acid solvent; after addition of about 313 mg; before overnight standing. Type of data set: physicochemical. The procedure: For this study, ten vials were prepared such that 5 vials contained 2 mL of Lovaza oil and 5 vials contained 2 mL of PUFA free acid solvent system. About 20 mg of each statin were added to one Lovaza oil vial and to one PUFA free acid solvent system vial. Vials containing the samples were blanketed with nitrogen, then sealed. The vials were then sonicated for 1 hour or until contents appeared clear. After sonication, vials which remained clear received additional 20 mg aliquots of their respective statin and were again blanketed with nitrogen. […] The samples were centrifuged and the supernatant was assayed for the respective statin by HPLC.

The nature of data set [3]: Solubility of statins in various pH buffers (Example 1).
The nature of data set [4]: Solubility of statins in omega-3 ethyl ester solvent system, Lovaza fill (Example 3). The following applies: sonicated 1 hour, overnight, supernatant by HPLC.

SMILES strings stand for the structures.

Regarding `CC(C)c1c(C(=O)Nc2ccccc2)c(-c2ccccc2)c(-c2ccc(F)cc2)n1CC[C@@H](O)C[C@@H](O)CC(=O)[O-].CC(C)c1c(C(=O)Nc2ccccc2)c(-c2ccccc2)c(-c2ccc(F)cc2)n1CC[C@@H](O)C[C@@H](O)CC(=O)[O-].[Ca+2]` [Atorvastatin, Atorvastatin Calcium], the “Statin in oil, content” value in data set [1] (t = 0) is recorded as 8.738 mg/g; in data set [1] (t = 1 week), 8.275 mg/g; in data set [1] (t = 2 week) it was 7.839 mg/g. The “Statin in oil, percent of total” value in data set [1] (t = 0), in data set [1] (t = 1 week) and in data set [1] (t = 2 week) was 100% throughout.
For `CC[C@H](C)C(=O)O[C@H]1C[C@H](O)C=C2C=C[C@H](C)[C@H](CC[C@@H](O)C[C@@H](O)CC(=O)O)[C@H]21` [Pravastatin Sodium], in data set [2], the “Appearance of vial after repeated statin additions and sonication” value is reported as “still remained clear”.
Regarding `CC(C)c1nc(N(C)S(C)(=O)=O)nc(-c2ccc(F)cc2)c1/C=C/[C@@H](O)C[C@@H](O)CC(=O)[O-].CC(C)c1nc(N(C)S(C)(=O)=O)nc(-c2ccc(F)cc2)c1/C=C/[C@@H](O)C[C@@H](O)CC(=O)[O-].[Ca+2]` [Rosuvastatin, Rosuvastatin Calcium], the “Statin in oil, content” value came to 6.481 mg/g in data set [1] (t = 0), 6.416 mg/g in data set [1] (t = 1 week) and 6.505 mg/g in data set [1] (t = 2 week). For the same compound, the “Statin in oil, percent of total” value in data set [1] (t = 0), in data set [1] (t = 1 week) and in data set [1] (t = 2 week) was 100% throughout. Besides, in data set [3] (acid phthalate buffer pH 4.0, T = 1 Week), the Solubility stood at 0.002. In addition, the “pH of maximal aqueous solubility” value in data set [3] (across the tested pH buffers) is around 7.0. In addition, the “Aqueous solubility (in words)” value in data set [3] (overall across pH buffers, rosuvastatin at time zero) was “significant aqueous solubility”. Besides, the “Initial solubility in PUFA ethyl ester solvent system, Concentration” value in data set [4] worked out at 1 µg/mL.
